# Target: T1, Human GLP-1R (Homo sapiens, UniProt P43220)
# T1 construct: expressed in transfected cells; host or cells: CRE-bla CHO-K1 (Chinese hamster ovary) cells
# Test: EC20 GLP-1(9-36) PAM cAMP assay: dose response of compound in the presence of fixed concentration of GLP-1(9-36)
# Type: cell-based
# Conditions: Human GLP-1R CRE-bla CHO-K1 cells, 60 nM GLP-1(9-36), 30 minutes at 37° C.
# Method: EC20GLP-1(9-36) PAM cAMP Assay: Dose Response of Compound in the Presence of Fixed Concentration of GLP-1 (9-36)
# Human GLP-1R CRE-bla CHO-K1 cells were cultured in growth medium (DMEM-High glucose, 10% dialyzed FBS, 0.1 mM NEAA, 25 mM Hepes, 100 U/mL penicillin/100 μg/mL streptomycin, 5 μg/mL Blasticidin, 600 μg/mL Hygromycin), trypsinized and plated in suspension into 384-well white flat bottom plates at 5000 cells/well in 12 μL assay buffer (Hank's Balanced Salt Solution, 10 mM Hepes, 0.1% BSA, pH 7.4). Each compound at a 5× concentration was diluted to a final concentration range of 10 to 0.01 μM (11 points) in assay buffer containing 1.5 mM IBMX and 4% DMSO. GLP-1(9-36) was diluted from 4.2 μM (30 x) to a final assay concentration of 60 nM in assay buffer containing 1.5 mM IBMX and 4% DMSO. Each compound concentration (5×) was added (3 μL), followed by 0.5 μL of GLP-1(9-36) and cells incubated for 30 minutes at 37° C. The peptide was added to the wells using siliconized tips. The reaction was stopped and levels of cAMP were quantified using the DiscoverX HitHunter cAMP kit according to the manufacturer's instructions and luminescence was detected using a SpectraMax M5 Multi-Mode Microplate reader. Luminescence was converted to total cAMP using a cAMP standard curve and data were analyzed by non-linear regression to determine the EC50 and Emax for each compound.
# T1 sequence (P43220 24-463): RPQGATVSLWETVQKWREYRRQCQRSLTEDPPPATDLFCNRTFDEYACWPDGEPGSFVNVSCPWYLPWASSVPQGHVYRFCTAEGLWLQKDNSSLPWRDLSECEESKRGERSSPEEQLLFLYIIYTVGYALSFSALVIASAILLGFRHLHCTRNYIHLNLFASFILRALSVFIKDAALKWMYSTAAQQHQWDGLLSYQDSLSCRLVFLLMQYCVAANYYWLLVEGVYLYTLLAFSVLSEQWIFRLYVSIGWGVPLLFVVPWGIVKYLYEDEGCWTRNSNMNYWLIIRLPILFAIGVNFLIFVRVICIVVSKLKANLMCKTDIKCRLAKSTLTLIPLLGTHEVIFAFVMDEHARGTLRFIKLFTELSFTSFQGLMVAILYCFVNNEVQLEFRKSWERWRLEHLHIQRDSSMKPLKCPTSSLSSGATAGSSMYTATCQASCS
row,EC50 [nM],SMILES
1,< 800,CC[C@H]1CC[C@H](C2CC=C(c3cnc(-c4ccc(CN(CC(=O)O)C(=O)c5ccc(NC(=O)CCc6ccc(OC)cc6)cc5)cc4)nc3)CC2)CC1 (stereo partly drawn) [Compound 93]
2,< 800,CC[C@H]1CC[C@H](C2CC=C(c3cnc(-c4ccc(CN(CC(=O)N5CC[C@H](C(=O)O)C5)C(=O)c5ccc(NC(=O)Cc6ccc(OC)cc6C(F)(F)F)cc5)cc4)nc3)CC2)CC1 (stereo partly drawn) [Compound 15]
3,< 800,CC[C@H]1CC[C@H](C2CC=C(c3cnc(-c4ccc(CN(CC(=O)O)C(=O)CCC(=O)CN5c6cccc7cccc(c67)S5(=O)=O)cc4)nc3)CC2)CC1 (stereo partly drawn) [Compound 127]
4,2500 to 5000,COc1ccc(CC(=O)Nc2ccc(C(=O)N(CC(=O)O)Cc3ccc(-c4ncc(C5=CCC(C(C)(C)C)CC5)cn4)cc3)cc2)c(C(F)(F)F)c1 (stereo not drawn) [Compound 77]
5,800 to 2500,COc1ccc(CC(=O)Nc2ccc(C(=O)N(CC(=O)O)Cc3ccc(-c4cnc(C5=CCC(C(C)C)CC5)cn4)cc3)cc2)cc1 (stereo not drawn) [Compound 88]
6,800 to 2500,CC[C@H]1CC[C@@H]([C@@H]2CC=C(c3cnc(-c4ccc(CN(CC(=O)O)C(=O)CNC(=O)Cc5ccc(OC)cc5)cc4)nc3)CC2)CC1 [Compound 118]

# Source: patent US11530205B2, “GLP-1 receptor modulators” (RECEPTOS LLC, priority 2017, dated 2022)
